Measurements reported in patent publication US20050124607A1, “5-Substituted quinazolinone compounds useful as alpha 1A/B adrenergic receptor antagonists” (priority 2003, published 2005).
Structures can show the parent of a compound that is named as a salt.

How the values were obtained:
[1] = tested on: hypogastric nerve stimulation-induced increases in intraurethral pressure and phenylephrine-induced increases in diastolic blood pressure; assay: In vivo intraurethral and blood pressure assay in anesthetized dog; settings: anesthetized male mongrel dog, i.v. bolus, increasing doses
Description: The following describes an in vivo assay for measuring the relative effect of test compounds on hypogastric nerve stimulation-induced increases in intraurethral pressure and phenylephrine-induced increases in diastolic blood pressure in anesthetized dog.
Male Mongrel dogs (10 to 20 kg) were-fasted for 12 to 18 hours and anesthetized with phenobarbital sodium (36 mg/kg, i.v.). An endotracheal tube was inserted and thereafter the lungs were mechanically ventilated with room air. The right femoral vein was isolated and cannulated with two polyethylene cannulae, one for the administration of a continuous infusion of phenobarbital sodium (5 to 10 mg/kg/hr) and the other for bolus administration of test substances. The right femoral artery was isolated and cannulated to the abdominal aorta with a fluid filled polyethylene cannula connected to an external pressure transducer for monitoring diastolic aortic pressure (DAP). The bladder was exposed via a ventral midline abdominal incision and emptied of urine through a 22 gauge needle. The bladder was cannulated through a stab incision with a water filled balloon catheter connected to an external pressure transducer for monitoring prostatic intraurethral pressure (IUP). The right hypogastric nerve (HGN) was carefully isolated and attached to a Dastre's electrode for nerve stimulation. […]

[2] = biological target: T1, alpha1A adrenoceptor (Homo sapiens, UniProt P35348); assay: [3H]prazosin binding (alpha1-adrenoceptor) assay, alpha 1A; settings: transfected CHO-K1 cell membranes, read-out: pKi alpha 1A (converted)
T1 construct: expressed in transfected cells; host or cells: CHO-K1
T1 sequence (P35348 1-466): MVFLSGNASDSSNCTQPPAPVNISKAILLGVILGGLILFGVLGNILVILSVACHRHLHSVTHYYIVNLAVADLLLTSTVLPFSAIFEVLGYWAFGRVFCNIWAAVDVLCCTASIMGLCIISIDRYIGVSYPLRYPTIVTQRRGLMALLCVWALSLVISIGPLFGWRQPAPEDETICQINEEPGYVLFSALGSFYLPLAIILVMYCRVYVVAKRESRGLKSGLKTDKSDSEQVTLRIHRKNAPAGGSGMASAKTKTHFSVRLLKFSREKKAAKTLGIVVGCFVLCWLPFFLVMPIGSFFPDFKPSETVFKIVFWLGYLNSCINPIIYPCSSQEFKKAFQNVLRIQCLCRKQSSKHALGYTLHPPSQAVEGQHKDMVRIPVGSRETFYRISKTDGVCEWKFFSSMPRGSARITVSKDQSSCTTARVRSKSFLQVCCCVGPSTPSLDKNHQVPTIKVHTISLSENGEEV
Description: (§1) Alpha1 A, alpha1B, and alpha1D adrenoceptor transfected CHO-K1 cells, prepared using the methods described by Chang et al., FEBS Lett. 1998, 422:279-283, were grown to confluence in T-162 tissue culture flasks in Ham's F-12 culture medium supplemented with 10% fetal bovine serum, geneticin (150 μg/mL) and streptomycin/penicillin (30 μg/mL/30 μg/mL) at 37° C. in 7% CO2. Cells were harvested by incubating with phosphate-buffered saline (PBS) containing 30 μM EDTA for 5-10 min at 37° C. Cells were pelleted by centrifuging at 500×g for 5 min, and the pelleted cells were homogenized (Polytron homogenizer) in 10 vols (w/v) of 50 mM Tris, 1 mM EDTA, (homogenisation buffer, pH 7.4 at 4° C.). The homogenate was centrifuged at 45,000×g for 20 min. The pellet was resuspended in the homogenizing buffer and rehomogenized. The resulting homogenate was centrifuged at 45,000×g for 20 min. The pellet was resuspended in 50 mM Tris buffer (pH 7.4 at 4° C.), aliquoted, frozen, and stored at −80° C. for further use.
(§2) The membranes were thawed at rt and diluted in assay buffer (50 mM Tris buffer at […]) at 37° C. and homogenized using the Polytron tissue disrupter. The membranes were incubated with the radioligand ([^3H]prazosin, NEN, 0.1-0.5 nM) and test compound at 37° C. for 30 min. The membranes were then filtered over polyethyleneimine-treated GF/B unifilter plates using a Packard Filtermate Harvester and washed with ice-cold 50 mM Tris-HCl, 1 mM EDTA buffer (3×3 sec. washes). Scintillation cocktail was added to the filter plates and bound radioligand determined by liquid scintillation spectrophotometry.
(§3) For each experiment, total binding (in the absence of any test or reference compounds) and non-specific binding (10 μM phentolamine) were determined. For each sample tested, the concentration producing 50% inhibition of binding (IC50) and Hill Slope (nH) was determined using iterative non-linear curve fitting techniques with Kaleidagraph (Synergy Software) or other appropriate software. If the radioligand KD was known, the inhibition dissociation constant (KI) of each ligand was determined according to the method of Cheng and Prusoff (Cheng, Y-C. and Prusoff, W. H., Biochem.Pharmacol., 1973, 22, 3099-3108).

[3] = biological target: T2, alpha1B adrenoceptor (Homo sapiens, UniProt P35368); assay: [3H]prazosin binding (alpha1-adrenoceptor) assay, alpha 1B; settings: transfected CHO-K1 cell membranes, read-out: pKi alpha 1B (converted)
T2 construct: expressed in transfected cells; host or cells: CHO-K1
T2 sequence (P35368 1-520): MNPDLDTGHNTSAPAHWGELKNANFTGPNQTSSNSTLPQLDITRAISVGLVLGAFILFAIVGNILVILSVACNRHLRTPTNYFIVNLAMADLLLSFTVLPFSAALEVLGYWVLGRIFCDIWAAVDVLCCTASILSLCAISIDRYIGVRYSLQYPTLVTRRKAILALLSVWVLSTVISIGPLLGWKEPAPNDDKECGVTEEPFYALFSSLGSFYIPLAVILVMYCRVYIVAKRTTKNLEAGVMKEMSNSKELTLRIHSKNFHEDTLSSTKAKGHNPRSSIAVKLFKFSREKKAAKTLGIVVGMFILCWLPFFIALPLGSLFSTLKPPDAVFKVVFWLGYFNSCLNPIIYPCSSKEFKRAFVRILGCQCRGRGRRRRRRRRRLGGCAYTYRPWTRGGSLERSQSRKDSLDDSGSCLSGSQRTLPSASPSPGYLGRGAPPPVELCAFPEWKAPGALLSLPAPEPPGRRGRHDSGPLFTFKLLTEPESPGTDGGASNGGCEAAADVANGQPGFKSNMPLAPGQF
Description: as §1, §2, §3

[4] = biological target: T3, alpha1D adrenoceptor (Homo sapiens, UniProt P25100); assay: [3H]prazosin binding (alpha1-adrenoceptor) assay, alpha 1D; settings: transfected CHO-K1 cell membranes, read-out: pKi alpha 1D (converted)
T3 construct: expressed in transfected cells; host or cells: CHO-K1
T3 sequence (P25100 1-572): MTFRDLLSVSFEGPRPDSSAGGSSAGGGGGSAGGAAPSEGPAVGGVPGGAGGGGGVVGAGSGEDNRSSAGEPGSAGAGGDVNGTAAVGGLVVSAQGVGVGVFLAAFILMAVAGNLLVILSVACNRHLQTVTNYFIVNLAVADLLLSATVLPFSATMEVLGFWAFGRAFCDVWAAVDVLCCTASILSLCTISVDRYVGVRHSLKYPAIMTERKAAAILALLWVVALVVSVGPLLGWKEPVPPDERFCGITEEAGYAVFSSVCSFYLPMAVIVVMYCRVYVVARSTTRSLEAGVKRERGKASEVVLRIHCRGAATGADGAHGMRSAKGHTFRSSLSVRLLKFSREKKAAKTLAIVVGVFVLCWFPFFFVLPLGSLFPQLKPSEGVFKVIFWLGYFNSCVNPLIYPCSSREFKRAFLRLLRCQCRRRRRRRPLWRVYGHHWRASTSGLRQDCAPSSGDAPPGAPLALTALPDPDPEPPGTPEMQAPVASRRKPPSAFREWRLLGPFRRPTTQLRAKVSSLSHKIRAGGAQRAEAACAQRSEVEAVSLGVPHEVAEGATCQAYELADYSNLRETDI
Description: as §1, §2, §3

SMILES | Ki [2] [nM] | Ki [3] [nM] | Ki [4] [nM] | melting point [°C] | inhibition of HGN stimulation-induced increases in IUP and PE-induced increases in DAP [1]
COc1cc2nc(N3CCN(C(=O)c4ccco4)CC3)nc(N)c2cc1OC [prazosin] | – | – | – | – | inhibited increases in IUP and DAP in similar fashion
CNCC(=O)N(C)Cc1cccc2c1CCN(c1nc(=O)c3c(C)c(OC)c(OC)cc3[nH]1)C2 [N-[2-(6,7-Dimethoxy-5-methyl-4-oxo-1,4-dihydro-quinazolin-2-yl)-1,2,3,4-tetrahydro-isoquinolin-5-ylmethyl]-N-methyl-2-methylamino-acetamide] | 1.58 | 1.58 | 79.4 | – | –
CCN(C)Cc1ccc2c(c1)CN(c1nc(=O)c3c(C)c(OC)c(OC)cc3[nH]1)CC2 [Example 2, 2-{7-[(Ethyl-methyl-ami-no)-methyl]-3,4-di-hydro-1H-isoquinolin-2-yl}-6,7-di-methoxy-5-meth-yl-1H-quinazolin-4-one] | – | – | – | 189.4 to 204.6 | –
COc1cc2[nH]c(N3CCC(OCc4cccc(/N=C(\C)N(C)C)c4)CC3)nc(=O)c2c(OC)c1OC [Example 81, N,N-Dimethyl-N′-{3-[1-(5,6,7-tri-methoxy-4-oxo-1,4-di-hydro-quinazolin-2-yl)-pipe-ridin-4-yloxy-methyl]-phenyl}-acetamidine] | – | – | – | 56 to 64.9 | –

Now from value to compound, other results behind:

Ki [2] [nM] | Ki [3] [nM] | Ki [4] [nM] | melting point [°C] | SMILES | inhibition of HGN stimulation-induced increases in IUP and PE-induced increases in DAP [1]
6.17 | 13.8 | 257 | – | COc1cc2[nH]c(N3CCC4(CC3)CN(c3ccc(F)cc3)C(=O)CO4)nc(=O)c2c(OC)c1OC | –
5.25 | 2.19 | 87.1 | – | COc1cc2[nH]c(N3CCC(CCn4ccnc4)CC3)nc(=O)c2c(C)c1OC [2-[4-(2-Imidazol-1-yl-ethyl)-piperidin-1-yl]-6,7-di-methoxy-5-methyl-1H-quinazolin-4-one] | –
1.12 | 2.51 | 457 | – | COc1cc2[nH]c(N3CCN(c4ncc[nH]4)CC3)nc(=O)c2c(OC)c1OC [2-[4-(1H-Imidazol-2-yl)-piperazin-1-yl]-5,6,7-tri-methoxy-1H-quinazolin-4-one] | –
– | – | – | 214 to 216.9 | CCN(C)Cc1cccc2c1CCN(c1nc(=O)c3c(OC)c(OC)c(OC)cc3[nH]1)C2 [Example 3, 2-{5-[(Ethyl-methyl-ami-no)-methyl]-3,4-di-hydro-1H-isoquinolin-2-yl}-5,6,7-tri-methoxy-1H-quinazolin-4-one] | –
– | – | – | 270.9 to 273.5 | COc1cc2[nH]c(N3CCc4c(cccc4/N=C(\C)N(C)C)C3)nc(=O)c2c(C)c1OC [Example 98, N′-[2-(6,7-Dimethoxy-5-meth-yl-4-oxo-1,4-di-hydro-quinazolin-2-yl)-1,2,3,4-tetra-hydro-iso-quinolin-5-yl]-N,N-di-methyl-acetamidine] | –
– | – | – | 267 to 270 | COc1cc2c(cc1OC)CN(c1nc(=O)c3c(OC)c(OC)c(OC)cc3[nH]1)CC2 (as salt: HCl) [Example 104, 2-(6,7-Dimethoxy-3,4-di-hydro-1H-isoquinolin-2-yl)-5,6,7-tri-methoxy-1H-quinazolin-4-one] | –
